Reference: the kinase profiling compilation of Christmann-Franck et al. (2016)

How the values were obtained:
Assay in all cases: radiometric filter-binding kinase assay
MAP3K7 TAB1 (human) = MAP3K7 TAB1 (human) (UniProt Q15750+O43318)
PIM1 (human) = PIM1 (human) (UniProt P11309)
DYRK1A (human) = DYRK1A (human) (UniProt Q13627)
STK3 (human) = STK3 (human) (UniProt Q13188)
MAPK3 (human) = MAPK3 (human) (UniProt P27361)
IKBKE (human) = IKBKE (human) (UniProt Q14164)
MKNK2 (human) = MKNK2 (human) (UniProt Q9HBH9)
[1] = system: AKT1 (human), P31749 [S473D]
PIM2 (human) = PIM2 (human) (UniProt Q9P1W9)
RPS6KA3 KD1 KD2 (human) = RPS6KA3 KD1 KD2 (human) (UniProt P51812)
PAK4 (human) = PAK4 (human) (UniProt O96013)
TBK1 (human) = TBK1 (human) (UniProt Q9UHD2)
NTRK1 (human) = NTRK1 (human) (UniProt P04629)
CSNK2A1 (human) = CSNK2A1 (human) (UniProt P68400)
MAPKAPK3 (human) = MAPKAPK3 (human) (UniProt Q16644)
EPHB3 (human) = EPHB3 (human) (UniProt P54753)
DAPK1 (human) = DAPK1 (human) (UniProt P53355)
MAPK11 (human) = MAPK11 (human) (UniProt Q15759)
[2] = system: SGK1 (human), O00141 [S422D]
PLK1 (human) = PLK1 (human) (UniProt P53350)
DYRK3 (human) = DYRK3 (human) (UniProt O43781)
BRSK2 (human) = BRSK2 (human) (UniProt Q8IWQ3)
[3] = system: RPS6KB1 (human), P23443 [T412E]
IRAK4 (human) = IRAK4 (human) (UniProt Q9NWZ3)
MAPKAPK5 (human) = MAPKAPK5 (human) (UniProt Q8IW41)
MAP2K6 (human) = MAP2K6 (human) (UniProt P52564)
MAPK12 (human) = MAPK12 (human) (UniProt P53778)
CLK2 (human) = CLK2 (human) (UniProt P49760)
MAPK8 (human) = MAPK8 (human) (UniProt P45983)
PIM3 (human) = PIM3 (human) (UniProt Q86V86)
IKBKB (human) = IKBKB (human) (UniProt O14920)
MAP3K11 (human) = MAP3K11 (human) (UniProt Q16584)
MAPK14 (human) = MAPK14 (human) (UniProt Q16539)
ROCK2 (rat) = conditions: accession and sequence are those of the human protein
RPS6KA1 KD1 KD2 (human) = RPS6KA1 KD1 KD2 (human) (UniProt Q15418)
Sequence of RPS6KA1 KD1 KD2 (human) (Q15418 whole entry, looked up): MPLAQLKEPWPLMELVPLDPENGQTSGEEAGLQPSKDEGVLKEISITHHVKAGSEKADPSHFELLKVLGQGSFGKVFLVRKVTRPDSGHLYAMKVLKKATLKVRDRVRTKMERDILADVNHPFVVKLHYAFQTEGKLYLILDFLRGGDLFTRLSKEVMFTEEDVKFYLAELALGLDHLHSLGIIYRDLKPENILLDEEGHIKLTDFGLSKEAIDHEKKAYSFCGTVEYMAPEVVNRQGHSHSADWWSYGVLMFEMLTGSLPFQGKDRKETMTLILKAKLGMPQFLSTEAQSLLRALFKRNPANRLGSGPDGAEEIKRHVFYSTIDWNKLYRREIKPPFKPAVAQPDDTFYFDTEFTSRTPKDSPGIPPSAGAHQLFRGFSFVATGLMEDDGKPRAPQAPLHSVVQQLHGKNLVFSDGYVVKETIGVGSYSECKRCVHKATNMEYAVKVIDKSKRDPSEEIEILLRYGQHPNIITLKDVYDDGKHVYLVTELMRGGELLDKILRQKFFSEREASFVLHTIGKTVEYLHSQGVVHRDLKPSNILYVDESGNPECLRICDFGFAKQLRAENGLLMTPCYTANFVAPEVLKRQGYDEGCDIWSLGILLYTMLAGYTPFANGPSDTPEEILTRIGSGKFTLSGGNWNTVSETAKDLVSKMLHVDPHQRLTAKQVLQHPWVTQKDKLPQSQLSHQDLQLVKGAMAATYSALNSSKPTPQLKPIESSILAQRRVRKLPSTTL

Sequence of CLK2 (human) (P49760 whole entry, looked up): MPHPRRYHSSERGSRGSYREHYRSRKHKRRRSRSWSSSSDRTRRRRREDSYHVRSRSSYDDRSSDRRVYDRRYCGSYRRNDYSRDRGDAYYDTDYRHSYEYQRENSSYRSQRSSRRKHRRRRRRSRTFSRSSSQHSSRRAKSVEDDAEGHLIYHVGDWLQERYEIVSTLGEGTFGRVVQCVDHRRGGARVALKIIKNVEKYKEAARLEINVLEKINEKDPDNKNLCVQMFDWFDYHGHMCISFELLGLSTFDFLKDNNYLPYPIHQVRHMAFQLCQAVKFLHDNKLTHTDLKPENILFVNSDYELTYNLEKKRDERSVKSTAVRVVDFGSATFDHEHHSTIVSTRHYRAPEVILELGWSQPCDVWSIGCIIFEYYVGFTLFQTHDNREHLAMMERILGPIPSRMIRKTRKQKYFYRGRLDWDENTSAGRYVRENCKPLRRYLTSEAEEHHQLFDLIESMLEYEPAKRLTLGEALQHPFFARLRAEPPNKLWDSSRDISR
Sequence of DYRK3 (human) (O43781 whole entry, looked up): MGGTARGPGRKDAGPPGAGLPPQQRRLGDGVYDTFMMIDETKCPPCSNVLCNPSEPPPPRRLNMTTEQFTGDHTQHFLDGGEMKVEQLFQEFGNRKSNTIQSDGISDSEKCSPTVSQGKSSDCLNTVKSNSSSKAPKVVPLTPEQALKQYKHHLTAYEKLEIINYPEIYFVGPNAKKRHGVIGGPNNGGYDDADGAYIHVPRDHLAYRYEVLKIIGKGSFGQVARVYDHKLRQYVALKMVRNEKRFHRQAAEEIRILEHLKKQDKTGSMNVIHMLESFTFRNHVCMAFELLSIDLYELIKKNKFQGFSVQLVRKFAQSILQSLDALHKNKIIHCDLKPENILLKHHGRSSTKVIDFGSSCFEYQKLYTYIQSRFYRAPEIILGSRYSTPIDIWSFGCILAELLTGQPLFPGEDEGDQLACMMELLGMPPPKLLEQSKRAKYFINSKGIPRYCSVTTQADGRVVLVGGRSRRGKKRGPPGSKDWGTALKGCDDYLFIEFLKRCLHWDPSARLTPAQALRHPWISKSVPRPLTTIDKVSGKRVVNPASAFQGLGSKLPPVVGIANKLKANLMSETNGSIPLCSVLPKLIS
Sequence of PLK1 (human) (P53350 whole entry, looked up): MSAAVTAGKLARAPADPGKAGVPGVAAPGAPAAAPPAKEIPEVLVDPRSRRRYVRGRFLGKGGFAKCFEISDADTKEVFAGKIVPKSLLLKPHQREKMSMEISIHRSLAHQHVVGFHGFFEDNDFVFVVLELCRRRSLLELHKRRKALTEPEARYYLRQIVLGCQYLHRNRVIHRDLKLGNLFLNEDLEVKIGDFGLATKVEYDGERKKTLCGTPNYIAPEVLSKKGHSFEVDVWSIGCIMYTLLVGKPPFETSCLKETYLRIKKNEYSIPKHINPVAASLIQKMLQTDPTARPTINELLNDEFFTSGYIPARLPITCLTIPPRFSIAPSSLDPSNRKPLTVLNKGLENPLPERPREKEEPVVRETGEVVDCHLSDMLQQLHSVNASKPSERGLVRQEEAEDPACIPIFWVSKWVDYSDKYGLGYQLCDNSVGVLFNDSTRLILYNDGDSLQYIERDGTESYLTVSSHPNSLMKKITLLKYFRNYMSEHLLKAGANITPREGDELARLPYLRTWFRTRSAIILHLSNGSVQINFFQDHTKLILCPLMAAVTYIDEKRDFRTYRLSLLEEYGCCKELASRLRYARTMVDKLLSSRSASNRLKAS
Sequence of MAPK3 (human) (P27361 whole entry, looked up): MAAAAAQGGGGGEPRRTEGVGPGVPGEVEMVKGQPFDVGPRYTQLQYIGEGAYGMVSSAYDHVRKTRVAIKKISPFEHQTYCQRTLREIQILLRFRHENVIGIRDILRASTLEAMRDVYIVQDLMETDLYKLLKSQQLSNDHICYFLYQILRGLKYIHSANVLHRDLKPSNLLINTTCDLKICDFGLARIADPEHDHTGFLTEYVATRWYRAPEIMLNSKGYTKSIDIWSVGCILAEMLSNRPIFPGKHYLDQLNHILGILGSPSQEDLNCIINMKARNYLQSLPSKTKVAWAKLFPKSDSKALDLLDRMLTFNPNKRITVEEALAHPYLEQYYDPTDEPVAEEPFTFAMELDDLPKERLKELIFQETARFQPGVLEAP
Sequence of DAPK1 (human) (P53355 whole entry, looked up): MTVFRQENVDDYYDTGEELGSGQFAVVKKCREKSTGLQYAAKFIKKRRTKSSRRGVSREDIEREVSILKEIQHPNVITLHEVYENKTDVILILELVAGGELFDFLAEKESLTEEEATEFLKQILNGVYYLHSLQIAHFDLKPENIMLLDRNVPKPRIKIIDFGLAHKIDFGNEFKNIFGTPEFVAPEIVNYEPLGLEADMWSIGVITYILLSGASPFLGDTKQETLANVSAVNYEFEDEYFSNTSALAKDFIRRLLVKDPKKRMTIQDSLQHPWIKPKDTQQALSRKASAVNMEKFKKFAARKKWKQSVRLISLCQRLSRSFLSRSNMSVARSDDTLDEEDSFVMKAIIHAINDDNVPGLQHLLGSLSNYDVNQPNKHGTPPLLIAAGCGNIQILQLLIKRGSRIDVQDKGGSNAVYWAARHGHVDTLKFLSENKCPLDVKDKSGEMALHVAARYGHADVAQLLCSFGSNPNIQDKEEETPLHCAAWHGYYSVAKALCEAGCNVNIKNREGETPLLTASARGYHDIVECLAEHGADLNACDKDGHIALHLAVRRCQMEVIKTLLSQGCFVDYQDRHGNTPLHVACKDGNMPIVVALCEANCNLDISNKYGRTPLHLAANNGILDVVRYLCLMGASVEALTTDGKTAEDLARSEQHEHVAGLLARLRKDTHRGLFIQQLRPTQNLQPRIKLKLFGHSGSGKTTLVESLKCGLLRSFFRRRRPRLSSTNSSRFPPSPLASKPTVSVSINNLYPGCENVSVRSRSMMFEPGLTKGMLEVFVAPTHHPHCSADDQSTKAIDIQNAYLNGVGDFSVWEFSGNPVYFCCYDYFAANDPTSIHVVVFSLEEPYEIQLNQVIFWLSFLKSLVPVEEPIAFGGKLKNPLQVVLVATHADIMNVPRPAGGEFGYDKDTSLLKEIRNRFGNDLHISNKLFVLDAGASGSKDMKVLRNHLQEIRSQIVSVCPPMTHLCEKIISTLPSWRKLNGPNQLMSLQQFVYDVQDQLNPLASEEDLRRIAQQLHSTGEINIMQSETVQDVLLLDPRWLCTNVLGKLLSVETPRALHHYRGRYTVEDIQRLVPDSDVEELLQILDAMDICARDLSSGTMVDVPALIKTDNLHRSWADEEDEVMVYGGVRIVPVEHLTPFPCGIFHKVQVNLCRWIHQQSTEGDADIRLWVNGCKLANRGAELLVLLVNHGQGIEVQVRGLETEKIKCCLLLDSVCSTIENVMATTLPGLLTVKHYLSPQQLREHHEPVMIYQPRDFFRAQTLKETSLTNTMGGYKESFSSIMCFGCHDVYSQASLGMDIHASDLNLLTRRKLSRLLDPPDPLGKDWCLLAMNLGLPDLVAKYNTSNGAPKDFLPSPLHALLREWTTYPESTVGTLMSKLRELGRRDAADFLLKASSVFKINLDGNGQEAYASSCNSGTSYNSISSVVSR
Sequence of MAPKAPK3 (human) (Q16644 whole entry, looked up): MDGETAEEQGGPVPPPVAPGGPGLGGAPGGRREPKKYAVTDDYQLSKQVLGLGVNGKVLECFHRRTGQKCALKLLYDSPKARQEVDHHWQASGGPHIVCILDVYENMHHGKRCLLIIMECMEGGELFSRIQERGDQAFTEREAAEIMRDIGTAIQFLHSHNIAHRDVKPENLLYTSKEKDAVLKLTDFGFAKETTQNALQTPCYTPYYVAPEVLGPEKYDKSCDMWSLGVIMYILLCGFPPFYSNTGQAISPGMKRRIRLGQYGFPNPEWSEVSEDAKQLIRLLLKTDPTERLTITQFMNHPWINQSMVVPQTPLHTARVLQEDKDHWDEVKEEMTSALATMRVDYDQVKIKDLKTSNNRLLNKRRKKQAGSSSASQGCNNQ
Sequence of PIM1 (human) (P11309 whole entry, looked up): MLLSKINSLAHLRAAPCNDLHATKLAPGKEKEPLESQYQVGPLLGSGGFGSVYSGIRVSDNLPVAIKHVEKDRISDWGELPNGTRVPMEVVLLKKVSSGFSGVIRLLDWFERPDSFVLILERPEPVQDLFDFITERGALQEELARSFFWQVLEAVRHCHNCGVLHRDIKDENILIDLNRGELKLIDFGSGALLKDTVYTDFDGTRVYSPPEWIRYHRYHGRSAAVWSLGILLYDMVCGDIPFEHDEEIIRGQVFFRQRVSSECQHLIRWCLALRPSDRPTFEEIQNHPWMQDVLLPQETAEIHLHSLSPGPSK

COc1cc(O)c2c(c1)/C=C/C[C@H](O)[C@H](O)C(=O)/C=C\C[C@H](C)OC2=O
residual activity (MAP3K7 TAB1 (human); compound 0.1 µM): 5%
residual activity (MAP3K7 TAB1 (human); compound 1.0 µM): 3%
residual activity (PIM1 (human); compound 0.1 µM): 102%
residual activity (PIM1 (human); compound 1.0 µM): 72%
residual activity (DYRK1A (human); compound 0.1 µM): 117%
residual activity (DYRK1A (human); compound 1.0 µM): 97%
residual activity (STK3 (human); compound 0.1 µM): 120%
residual activity (STK3 (human); compound 1.0 µM): 89%
residual activity (MAPK3 (human); compound 0.1 µM): 106%
residual activity (MAPK3 (human); compound 1.0 µM): 64%
residual activity (IKBKE (human); compound 0.1 µM): 120%
residual activity (IKBKE (human); compound 1.0 µM): 92%
residual activity (MKNK2 (human); compound 0.1 µM): 41%
residual activity (MKNK2 (human); compound 1.0 µM): 26%
residual activity ([1]; compound 0.1 µM): 111%
residual activity ([1]; compound 1.0 µM): 91%
residual activity (PIM2 (human); compound 0.1 µM): 91%
residual activity (PIM2 (human); compound 1.0 µM): 106%
residual activity (RPS6KA3 KD1 KD2 (human); compound 0.1 µM): 106%
residual activity (RPS6KA3 KD1 KD2 (human); compound 1.0 µM): 70%
residual activity (PAK4 (human); compound 0.1 µM): 94%
residual activity (PAK4 (human); compound 1.0 µM): 81%
residual activity (TBK1 (human); compound 0.1 µM): 105%
residual activity (TBK1 (human); compound 1.0 µM): 102%
residual activity (NTRK1 (human); compound 0.1 µM): 46%
residual activity (NTRK1 (human); compound 1.0 µM): 24%
residual activity (CSNK2A1 (human); compound 0.1 µM): 106%
residual activity (CSNK2A1 (human); compound 1.0 µM): 77%
residual activity (MAPKAPK3 (human); compound 0.1 µM): 113%
residual activity (MAPKAPK3 (human); compound 1.0 µM): 94%
residual activity (EPHB3 (human); compound 0.1 µM): 111%
residual activity (EPHB3 (human); compound 1.0 µM): 100%
residual activity (DAPK1 (human); compound 0.1 µM): 108%
residual activity (DAPK1 (human); compound 1.0 µM): 94%
residual activity (MAPK11 (human); compound 0.1 µM): 90%
residual activity (MAPK11 (human); compound 1.0 µM): 72%
residual activity ([2]; compound 0.1 µM): 106%
residual activity ([2]; compound 1.0 µM): 95%
residual activity (PLK1 (human); compound 0.1 µM): 103%
residual activity (PLK1 (human); compound 1.0 µM): 100%
residual activity (DYRK3 (human); compound 0.1 µM): 94%
residual activity (DYRK3 (human); compound 1.0 µM): 101%
residual activity (BRSK2 (human); compound 0.1 µM): 84%
residual activity (BRSK2 (human); compound 1.0 µM): 88%
residual activity ([3]; compound 0.1 µM): 112%
residual activity ([3]; compound 1.0 µM): 82%
residual activity (IRAK4 (human); compound 0.1 µM): 99%
residual activity (IRAK4 (human); compound 1.0 µM): 28%
residual activity (MAPKAPK5 (human); compound 0.1 µM): 66%
residual activity (MAPKAPK5 (human); compound 1.0 µM): 14%
residual activity (MAP2K6 (human); compound 0.1 µM): 12%
residual activity (MAP2K6 (human); compound 1.0 µM): 10%
residual activity (MAPK12 (human); compound 0.1 µM): 99%
residual activity (MAPK12 (human); compound 1.0 µM): 92%
residual activity (CLK2 (human); compound 0.1 µM): 96%
residual activity (CLK2 (human); compound 1.0 µM): 90%
residual activity (MAPK8 (human); compound 0.1 µM): 90%
residual activity (MAPK8 (human); compound 1.0 µM): 52%
residual activity (PIM3 (human); compound 0.1 µM): 126%
residual activity (PIM3 (human); compound 1.0 µM): 80%
residual activity (IKBKB (human); compound 0.1 µM): 102%
residual activity (IKBKB (human); compound 1.0 µM): 95%
residual activity (MAP3K11 (human); compound 0.1 µM): 114%
residual activity (MAP3K11 (human); compound 1.0 µM): 79%
residual activity (MAPK14 (human); compound 0.1 µM): 103%
residual activity (MAPK14 (human); compound 1.0 µM): 85%
residual activity (ROCK2 (rat); compound 0.1 µM): 116%
residual activity (ROCK2 (rat); compound 1.0 µM): 83%
residual activity (RPS6KA1 KD1 KD2 (human); compound 0.1 µM): 113%
residual activity (RPS6KA1 KD1 KD2 (human); compound 1.0 µM): 90%
